Test results from US20240374680A1, “PHARMACEUTICAL COMPOSITION FOR TREATMENT OF VIRAL INFECTIONS” (Virenc AB, priority 2021, published 2024).
Where no end group is shown, it is not given here.

Legend:
[1] = system: Influenza A virus (H1N1/CA09pdm); test: Influenza A virus inhibition assay (plaque assay); assay type: cell-based; details: Influenza A virus (1×10^3) pre-treated 1 h at 37° C.; read-out: concentration for 50% reduction of influenza A PFU
SARS-CoV-2 = SARS-CoV-2 virus inhibition assay (plaque assay); assay type: cell-based, Severe Acute Respiratory Syndrome Coronavirus 2; details: SARS-CoV-2 (1×10^3) exposed 1 h at 37° C., then Vero cells; read-out: concentration for 50% reduction of PFU
Langat virus (LGTV) [2] = assay type: biochemical; details: 2 h
[3] = Carboxyfluorescein (CF) release assay; assay type: biochemical
Protocol: Liposomes were prepared by thin film hydration, followed by extrusion^19. Stock solutions of the lipids 1-palmitoyl-2-oleoyl-sn-glycero3-phosphatidylcholine (POPC), 1-palmitoyl-2-oleoyl-sn-glycero-3-phosphoL-serine (POPS) and cholesterol (Chol) were mixed at molar ratio 95:0:5, 65:30:5, 70:0:30, 91:1:8 and 81:11:8. The solvent was slowly evaporated via nitrogen stream, then the vials were dried in a vacuum desiccator overnight. Dry films were hydrated by addition of 1 mL 5(6)-carboxyfluorescein solution. The CF solution, presenting self-quenching concentration of CF, was prepared with 50 mM CF dissolved in 10 mM PB buffer and 90 mM NaCl, followed by pH adjustment. CF solution was dispensed on the lipid cake and incubated for 10 min under gentle shaking (50 min-1 on orbital shaker), followed by 1 min vortexing. The liposomes were extruded 21 times with a mini extruder (Avanti Polar Lipids, Inc.), through a 0.1 um membrane (Nucleapore track-etched hydrophilic membrane). The lipids were purified by gel filtration through a PD Mini Trap G-25 column by elution in PB buffer (10 mM).
To study peptide efficacy on liposome membrane disruption, the liposome fluorescence was monitored upon peptide addition by microplate reader (Tecan Infinite M1000 Pro, λex=485 nm, λem=520 nm). Liposomes were diluted to a final concentration of 25 μM with 10 mM PB buffer and incubated with PLNC8 α, PLNC8 β and PLNC8 α/β at concentration of 10^−5-10^2 μM in a 96 well plate at a final volume of 200 μL. Due to the self-quenching concentration of carboxyfluorescein (CF) inside the liposomes, any fluorescence of the liposome-peptide system could be attributed to the liposome membrane disruption. Fluorescence was monitored prior to peptide addition (F0), and continuatively for 30 min. Total CF release (FT) was achieved through addition of 1% Triton X-100. Instantaneous CF release (%) was calculated through the formula 100×(F−F0)/(FT−F0), where F is the instantaneous fluorescence.

Kunjin virus (KUNV) [4] = test: Flavivirus inhibition assay, crystal violet-based plaque assay (Vero cells); assay type: cell-based; details: for reduction of viral load: L- or D-PLNC8 αβ (1:1)
Kunjin virus (KUNV) [5] = test: Peptide treatment of KUNV-infected A549 cells (viral mRNA, extracellular virions); details: A549 infected 1 h, then 10 μM, 48 h; cell culture media
human cells = details: previously shown (ref. 16); cited from earlier work
Langat virus (LGTV) [6] = assay type: cell-based

Substance: SVPTSVYTLGIKILWSAYKHRKTIEKSFNKGFYH, SEQ ID NO:1 [D-PLNC8 β]
- IC50 [1]: 19000 nM
- IC50 (SARS-CoV-2): 1400 nM
- permeabilization of the viral envelope (Sytox Green) (Langat virus (LGTV) [2]): permeabilized

Substance: Plantaricin NC8 (PLNC8) αβ [PLNC8 αβ]
- susceptibility of liposomes (CF release) ([3]; POPC:POPS:Chol (70:0:30), mimicking a eukaryotic plasma membrane): resilient
- susceptibility of liposomes (CF release) ([3]; POPC:POPS:Chol (81:11:8), mimicking a eukaryotic ER membrane): very susceptible
- susceptibility of liposomes (CF release) ([3]; POPC:POPS:Chol (91:1:8)): more susceptible
- reduction of viral load (Kunjin virus (KUNV) [4]; 0.1 μM, KUNV MOI 0.1, 0.01, 0.001, 1 h): 80%
- reduction of viral load (Kunjin virus (KUNV) [4]; 1 μM, KUNV MOI 0.1, 0.01, 0.001, 1 h): 95%
- elimination of virions (Kunjin virus (KUNV) [4]; ≥10 μM, KUNV MOI 0.1, 0.01, 0.001, 1 h): completely eliminates all virions
- reduction of extracellular virion load (Kunjin virus (KUNV) [5]): 70-80%
- cytotoxicity towards human cells (human cells): no cytotoxicity towards human cells

Substance: PLNC8 β: peptide of SEQ ID NO:1; statement covers L- and D-enantiomers (FIG. 7) (SVPTSVYTLGIKILWSAYKHRKTIEKSFNKGFYH; also: L- or D-enantiomer covered; listed as Lactobacillus plantarum)
- efficiency at eliminating KUNV, single peptides compared (Kunjin virus (KUNV) [4]; 20 μM, L- and D-enantiomers (FIG. 7)): more efficient than PLNC8 α at eliminating KUNV

Substance: SVPTSVYTLGIKILWSAYKHRKTIEKSFNKGFYH [L-PLNC8 β]
- decrease of viral load (Langat virus (LGTV) [6]): > 99%
- IC50 [1]: > 20000 nM
- IC50 (SARS-CoV-2): 900 to 1000 nM
- permeabilization of the viral envelope (Sytox Green) (Langat virus (LGTV) [2]): permeabilization of LGTV
